Results on three compounds are retold here after patent US7083667B2, “Colorant compound, ink, ink tank, recording unit, recording apparatus and recording process” (Canon Kabushiki Kaisha, priority 2004, dated 2006).

The data set in a line: Determination of solubility in chloroform at room temperature. The data set is classed as physicochemical. Particulars: for Solubility in chloroform (in words): nonpolar solvent; for Solubility: in chloroform, room temperature. The method, then:
Determination of Solubility
With respect to Colorant Compounds (5) to (16) obtained above, solubility in chloroform at room temperature was determined.

On to `CCOC(=O)c1ccccc1-c1c2cc/c(=N\c3c(C)cccc3C)cc-2oc2cc(Nc3c(C)cccc3C)ccc12` [Compound (6)], for which the “Solubility in chloroform (in words)” value is listed as “higher solubility” and the Solubility is given as 20.5 % by mass. `CCOC(=O)c1ccccc1-c1c2cc/c(=N\c3c(C)cccc3C)cc-2oc2cc(Nc3c(C)cccc3C)ccc12.Cl` [Compound (5)] had a Solubility of 10.7 % by mass. For `Cc1cccc(C)c1N=c1ccc2c(-c3ccccc3S(=O)(=O)O)c3ccc(Nc4c(C)ccc(S(=O)(=O)[O-])c4C)cc3oc-2c1.[Na+]` [C.I. Acid Red 289, reference compound], the “Solubility in chloroform (in words)” value is given as “not dissolved”.
